# Measured values from PMC7002685, “Inhibition of vascular calcification by inositol phosphates derivatized with ethylene glycol oligomers” (Nature Communications, 2020).
# “And” between values parts separate entries of the source, which are not always exact repeats. Equal entries are not always repeated.
# Tested on: transformation of CPP1 to CPP2 in pooled human serum
# Experiment: In vitro serum calcification propensity (T50) screening assay
# Format: biochemical
# Design: key to T50: T50 in minutes (time to 50% CPP phase transition)
# Settings: for activity/unit mass: mean c350 x mw (Na salt); for concentration upon which a T50 of 350 min is reached (c350), mean: mean of n experiments; for concentration upon which a T50 of 350 min is reached (c350), single experiment: one value per experiment (lab journal reference E05-E40); for Concentration at T50 = 350 min mean ± s.d. (n) (c350): pooled human serum, 10 mM calcium, 6 mM phosphate, 37 °C
# Method: The compounds were ranked for calcification inhibition activity using a nanoparticle-based test, developed for risk stratification, which measures the propensity for calcification in patient serum. […] The time, after which 50% of CPP phase transition occurred (T50), was assessed by time-resolved spectrophotometry at 550 nm (Supplementary Fig. 1a).
# The screening assay was performed as described previously. In brief, pooled human serum (H4522, Sigma-Aldrich) stored at −20 °C was thawed at 37 °C, centrifuged (10,000 × g, and 4 °C, 30 min) (5427R, Eppendorf, Switzerland), and sterile filtered (0.22 μm filter, Millipore, Merck KGaA) to remove potential cryoprecipitates (cleared human serum). The calcium solution was 40 mM CaCl2 (102382, Merck KGaA) in HBS, pH 7.4 (RT) (100 mM HEPES (H3375, Sigma-Aldrich) and 140 mM NaCl (1734712, Fisher Scientific, Hampton, NH, USA)). […] All salt solutions and buffers were double sterile filtered (0.22 µm) and pre-warmed to 37 °C prior to use. […] The plate was sealed with an adhesive film and the absorption at 550 nm was measured every 3 min with 1 min in-between shaking for a total of 300 cycles at 37 °C using the infinite M200 microplate reader (Tecan, Männedorf, Switzerland). An A550 vs. time graph was generated and T50 (min) (time at half-maximum transition from CPP1 to CPP2) values were derived by sigmoidal curve fit using Prism 8 (nonlinear regression in the log(agonist) vs. response–variable slope (four parameter mode) using the robust fit fitting method, GraphPad Software, San Diego, CA, USA). Activities between compounds were compared by generating a T50 (min) vs. concentration (µM) graph, calculating nonlinear regression and deriving the concentration required to delay T50 to 350 min (c350) using a standard equation for the dose–response curve, Eq. (1), whereby x = [compound], y = time (min), bottom = baseline response, top = maximum response, T50 = [drug] that leads to half-maximum response, and the hill slope is a factor that describes the steepness of the curve.1 y= bottom+top - bottom/1+T50/x^hillslope.
# [1] = concentration 1 μM, one value per experiment
# [2] = concentration 3 μM, one value per experiment
# [3] = concentration 10 μM, one value per experiment
# [4] = concentration 30 μM, one value per experiment
# [5] = concentration 50 μM, one value per experiment
# [6] = concentration 100 μM, one value per experiment
# [7] = concentration 0.3 μM, one value per experiment
compound,measurement,setting,value
"OP(O)(=S)O[C@H]1[C@H](OP(O)(O)=S)[C@@H](OP(O)(O)=S)[C@H](OP(O)(O)=S)[C@@H](OP(O)(O)=S)[C@H]1OP(O)(O)=S [IT6, myo-Inositol hexathiophosphate]",T50,[1],209.1 and 228.433 and 226.433
same,T50,[2],226.567 and 251.033 and 247.133
same,T50,[3],291.533 and 299.233 and 300.133
same,T50,[4],577.433 and 598.2 and 571.6
same,activity/unit mass,,12.79 mg/L
same,"concentration upon which a T50 of 350 min is reached (c350), mean",,14.4 µM
same,"concentration upon which a T50 of 350 min is reached (c350), single experiment",,14.7 µM and 14.2 µM and 14.3 µM
same,Concentration at T50 = 350 min mean ± s.d. (n) (c350),,14.4 ± 0.3 (3) µM
"O=P(O)(O)O[C@@H]1[C@@H](O)[C@H](OP(=O)(O)O)[C@@H](OP(=O)(O)O)[C@H](O)[C@@H]1OP(=O)(O)O [IP4, myo-Inositol-2,3,5,6-tetrakisphosphate]",T50,[1],211 and 218.833 and 216.333
same,T50,[2],225 and 236 and 231.367
same,T50,[3],262.033 and 281.067 and 280.633
same,T50,[4],466.533 and 430.4 and 481.633
same,T50,[5],774.233 and 614.5 and 810.35
same,"concentration upon which a T50 of 350 min is reached (c350), mean",,19.5 µM
same,"concentration upon which a T50 of 350 min is reached (c350), single experiment",,20.1 µM and 19.8 µM and 18.8 µM
same,Concentration at T50 = 350 min mean ± s.d. (n) (c350),,19.5 ± 0.7 (3) µM and 13.2 ± 0.5 (3) mg/L
"O[C@H]1[C@H](O)[C@@H](O)[C@H](O)[C@@H](O)[C@H]1O [myo-Inositol, myo-inositol]",T50,"1 µM, individual experiments, Fig. 2a",207.8 min and 255.6 min and 248.233 min and 290.55 min
same,T50,"3 µM, individual experiments, Fig. 2a",211.367 min and 251.867 min and 315.75 min
same,T50,"10 µM, individual experiments, Fig. 2a",222.4 min and 274.533 min and 249.233 min and 297.6 min
same,T50,"30 µM, individual experiments, Fig. 2a",215.55 min and 286.233 min and 247.167 min and 309.65 min
same,T50,"50 µM, individual experiments, Fig. 2a",213.1 min and 307.8 min
same,T50,"100 µM, individual experiments, Fig. 2a",291.467 min and 250.833 min
same,T50,[1],207.8 and 255.6 and 248.233 and 290.55
same,T50,[2],211.367 and 251.867 and 315.75
same,T50,[3],222.4 and 274.533 and 249.233 and 297.6
same,T50,[4],215.55 and 286.233 and 247.167 and 309.65
same,T50,[5],213.1 and 307.8
same,T50,[6],291.467 and 250.833
same,activity/unit mass,,18.02 mg/L
same,"concentration upon which a T50 of 350 min is reached (c350), mean",,> 100 µM
same,Concentration at T50 = 350 min mean ± s.d. (n) (c350),,>100 (4) µM and >18.0 (4) mg/L
"COCCOCCOCCOCCOCCOCCOCCO[C@@H]1[C@@H](OP(=O)(O)O)[C@H](OP(=O)(O)O)[C@@H](OP(=O)(O)O)[C@@H](OP(=O)(O)O)[C@H]1OP(=O)(O)O (racemic) [OEG7-IP5, (±)-6-O-(methoxy-heptaethyleneglycol)-myo-inositol-1,2,3,4,5-pentakis(phosphate)]",T50,[7],220.667 and 225.7 and 210.2
same,T50,[1],229.7 and 230.533 and 222.7
same,T50,[2],271.4 and 260.7 and 241.467
same,T50,[3],480.067 and 432.633 and 427.367
same,activity/unit mass,,7.56 mg/L
same,"concentration upon which a T50 of 350 min is reached (c350), mean",,6.7 µM
same,"concentration upon which a T50 of 350 min is reached (c350), single experiment",,5.8 µM and 6.8 µM and 7.6 µM
same,Concentration at T50 = 350 min mean ± s.d. (n) (c350),,6.7 ± 0.9 (3) µM and 7.6 ± 1.0 (3) mg/L
"O=P1(O)OP(=O)(O)O[C@H]2[C@@H](O1)[C@@H]1OP(=O)(O)OP(=O)(O)O[C@H]1[C@@H]1OP(=O)(O)OP(=O)(O)O[C@@H]21 (racemic) [ITPP, myo-inositol trispyrophosphate]",T50,[1],193.4 and 250.1 and 242.3 and 298
same,T50,[2],191.467 and 273.733 and 236.7 and 299.7
same,T50,[3],194.6 and 250.333 and 260.467 and 308.2
same,T50,[4],200.233 and 253.8 and 260.967
same,T50,[5],203.167
same,T50,[6],274.033 and 292.433
same,activity/unit mass,,60.60 mg/L
same,"concentration upon which a T50 of 350 min is reached (c350), mean",,> 100 µM
same,Concentration at T50 = 350 min mean ± s.d. (n) (c350),,>100 (4) µM and >60.6 (4) mg/L
"COCCOCCO[C@H]1[C@H](OP(=O)(O)O)[C@H](OCCOCCOC)[C@H](OP(=O)(O)O)[C@@H](OCCOCCOC)[C@@H]1OP(=O)(O)O [(OEG2)3-IP3, 2,4,6-Tri-O-(methoxy-diethyleneglycol)-myo-inositol-1,3,5-tris(phosphate)]",T50,[1],250.8 and 223.6 and 227.933
same,T50,[2],288.867 and 266.233 and 265.7
same,T50,"concentration 5 μM, one value per experiment",325.1 and 295.733 and 294.5
same,T50,[3],440.6 and 395.433 and 411.533
same,activity/unit mass,,5.43 mg/L
same,"concentration upon which a T50 of 350 min is reached (c350), mean",,7.1 µM
same,"concentration upon which a T50 of 350 min is reached (c350), single experiment",,6.1 µM and 7.7 µM and 7.4 µM
same,Concentration at T50 = 350 min mean ± s.d. (n) (c350),,7.1 ± 0.9 (3) µM and 5.4 ± 0.7 (3) mg/L
"COCCOCCOCCOCCOCCOCCOCCOCCOCCOCCOCCO[C@@H]1[C@@H](OP(=O)(O)O)[C@H](OP(=O)(O)O)[C@@H](OP(=O)(O)O)[C@@H](OP(=O)(O)O)[C@H]1OP(=O)(O)O (racemic) [OEG11-IP5, (±)-6-O-(methoxy-undecaethyleneglycol)-myo-inositol-1,2,3,4,5-pentakis(phosphate)]",T50,[7],222.7 and 220.167 and 220.4
same,T50,[1],258.35 and 236.633 and 236.5
same,T50,[2],294.167 and 279.867 and 265.867
same,T50,[3],559.8 and 530.3 and 501.9
same,activity/unit mass,,6.84 mg/L
same,"concentration upon which a T50 of 350 min is reached (c350), mean",,5.3 µM
same,"concentration upon which a T50 of 350 min is reached (c350), single experiment",,4.6 µM and 5.2 µM and 6.0 µM
same,Concentration at T50 = 350 min mean ± s.d. (n) (c350),,5.3 ± 0.7 (3) µM and 6.8 ± 0.9 (3) mg/L
"COCCOCCO[C@@H]1[C@@H](OP(=O)(O)O)[C@H](OP(=O)(O)O)[C@@H](OP(=O)(O)O)[C@@H](OP(=O)(O)O)[C@H]1OP(=O)(O)O (racemic) [OEG2-IP5, (±)-6-O-(methoxy-diethyleneglycol)-myo-inositol-1,2,3,4,5-pentakis(phosphate)]",T50,[7],233.1 and 222.8 and 210.3
same,T50,[1],261.7 and 258.567 and 225.033
same,T50,[2],295.2 and 270.867 and 244.067
same,T50,[3],440.033 and 391.7 and 340.167
same,activity/unit mass,,7.10 mg/L
same,"concentration upon which a T50 of 350 min is reached (c350), mean",,7.9 µM
same,"concentration upon which a T50 of 350 min is reached (c350), single experiment",,5.5 µM and 7.4 µM and 10.7 µM
same,Concentration at T50 = 350 min mean ± s.d. (n) (c350),,7.9 ± 2.7 (3) µM and 7.1 ± 2.4 (3) mg/L
same,Concentration at T50 = 350 min mean ± s.d. (n) (c350),"listed as (±)-4-O-(methoxy-diethyleneglycol)-myo-inositol-1,2,3,5,6-pentakis(phosphate)",7.9 ± 2.7 µM and 7.1 ± 2.4 mg/L
same,c350,unit not printed in the sentence (equals mg/L column of rebuttal Table 1),7.1 ± 2.4
"COCCOCCOCCOCCOCCOCCOCCOCCOCCOCCOCCO[C@@H]1[C@@H](OS(=O)(=O)O)[C@H](OP(=O)(O)O)[C@@H](OS(=O)(=O)O)[C@@H](OP(=O)(O)O)[C@H]1OS(=O)(=O)O (racemic) [OEG11-IP2S3, (±)-4-O-(methoxy-undecaethyleneglycol)-1,3,5-O-tris(sulfato)-myo-inositol-2,6-O-bis(phosphate)]",T50,[7],256.3
same,T50,[1],217.567 and 236.467 and 212.467
same,T50,[2],261.167 and 253.1 and 226.6
same,T50,[3],303.9 and 300.967 and 303.767 and 294.6
same,T50,[4],430.533 and 413.2 and 437.833 and 410.233
same,T50,[5],586.8 and 587.733 and 528.367
same,activity/unit mass,,22.87 mg/L
same,"concentration upon which a T50 of 350 min is reached (c350), mean",,18.6 µM
same,"concentration upon which a T50 of 350 min is reached (c350), single experiment",,16.2 µM and 19.4 µM and 17.1 µM and 19.2 µM and 20.9 µM
same,Concentration at T50 = 350 min mean ± s.d. (n) (c350),,18.6 ± 1.9 (5) µM and 22.9 ± 2.3 (5) mg/L
O=C([O-])CC(O)(CC(=O)[O-])C(=O)[O-].O=C([O-])CC(O)(CC(=O)[O-])C(=O)[O-].[Mg+2].[Mg+2].[Mg+2] [Mg citrat],activity/unit mass,,21.44 mg/L
same,"concentration upon which a T50 of 350 min is reached (c350), mean",,> 100 µM
magnesium citrate,T50,[1],196.233 and 242.1 and 288.4
same,T50,[2],190.533 and 253.267 and 289.2
same,T50,[3],197.533 and 253.867 and 304.8
same,T50,[4],198.933 and 273.433 and 307.3
same,T50,[6],228.767 and 304.4 and 351.8
same,Concentration at T50 = 350 min mean ± s.d. (n) (c350),,>100 (3) µM and >21.4 (3) mg/L
"O=P(O)(O)OP(=O)(O)O [PPi, sodium pyrophosphate]",T50,[1],217.433
same,T50,[2],221.633 and 215.733 and 209.467
same,T50,[3],255.8 and 265.133 and 242.367
same,T50,"concentration 15 μM, one value per experiment",287.067 and 306.267 and 274.667
same,T50,[4],364.3 and 363.867 and 345.167
same,T50,[5],483 and 451.167
same,"concentration upon which a T50 of 350 min is reached (c350), mean",,27.4 µM
same,"concentration upon which a T50 of 350 min is reached (c350), single experiment",,26.6 µM and 25 µM and 30.5 µM
same,Concentration at T50 = 350 min mean ± s.d. (n) (c350),,27.4 ± 2.8 (3) µM and 7.3 ± 0.8 (3) mg/L
